These are literature values, as cited in patent US5246706A, “Device for administering bimakalim transdermally” (Cygnus Therapeutic Systems, priority 1991, dated 1993).

The test system of one data set is potassium channel. To be noted: background statement.
For data set [1] the following is noted: known.
The conditions of data set [2]: octanol/phosphate buffer, pH 7.4; known.

In the case of `CC1(C)Oc2ccc(C#N)cc2[C@@H](n2ccccc2=O)[C@@H]1O` (single isomer, unassigned) [(-)-trans-3,4-dihydro-4-(1,2-dihydro-2-oxo-1-pyridyl)-3-hydroxy-2,2-dimethyl-2H-1-benzopyran-6-carbonitrile], in the data set on potassium channel, the “potassium channel activating properties” value is given as “exhibits potassium channel activating properties”.
Take `CC1(C)C=C(n2ccccc2=O)c2cc(C#N)ccc2O1` [Bimakalim, 4-(1,2-dihydro-2-oxo-1-pyridyl)-2,2-dimethyl-2H-1-benzopyran-6-carbonitrile]: in data set [1], the water solubility result was “approximately 0.7 mg/ml”. Moreover, the partition coefficient in data set [2] is recorded as 27.0. The “potassium channel activating properties” value in the data set on potassium channel is given as “potassium channel activating drug”.
